Test systems include DLD-1; DMS-114; M19-MEL; DMS-273; RXF 631; MDA-N; BT-549; XF498; SNB-78.
Test in all cases: NCI anticancer screen, dose series, 48 h

Experimental findings from ChEMBL document CHEMBL1201862, “PubChem BioAssay data set” (2004) are described below.

SMILES strings stand for the structures.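 96-well plates; 48 h exposure; 5 concentrations. Endpoints by linear interpolation between flanking doses. Not reached: highest tested concentration assigned. GI50 is the concentration that inhibits growth by half.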 Activity calls are given as the source filed them. Cut-off read from the data, not from the text of the source: active = GI50 up to about 1.1 µM and inactive = higher.

On to `C/C=C/CC(C)[C@@H](O)[C@H](NC)C(=O)O` (some centres not stated), for which the GI50 in the assay on DLD-1, with DMS-114, with M19-MEL and in the assay with DMS-273 was > 100 µM (inactive) throughout.

Regarding `COc1ccc(OC)c2c(=S)c3ccccc3[nH]c12`, the GI50 with DLD-1 was > 100 µM (inactive); in the assay on RXF 631, 41.5 µM (inactive); in the assay with DMS-114, 32 µM (inactive); with M19-MEL it was > 100 µM (inactive); with MDA-N, > 100 µM (inactive); with BT-549, > 100 µM (inactive). Moreover, the results for the GI50 with XF498 and in the assay on DMS-273 were > 100 µM (inactive) and > 82.8 µM (inactive), respectively.

Take `Cc1ccc(NC(=O)CC2Sc3ccccc3NC2=O)cc1C` (configuration not stated): the GI50 was > 100 µM (inactive) in the assay on DLD-1; 41.9 µM (inactive) in the assay on DMS-114; > 100 µM (inactive) in the assay on M19-MEL; > 100 µM (inactive) in the assay with SNB-78; > 100 µM (inactive) in the assay with XF498; 85.7 µM (inactive) in the assay with DMS-273.

On to `O=C(/C=C\c1ccc(/C=C/C(=O)Nc2cccc(C3=NCCCN3)c2)cc1)Nc1cccc(C2=NCCCN2)c1`, for which the GI50 in the assay on DLD-1 was > 100 µM (inactive); in the assay on M19-MEL, > 100 µM (inactive); in the assay with SNB-78 it was > 100 µM (inactive); with XF498, < 0.01 µM (active); in the assay on DMS-273, > 100 µM (inactive).

Regarding `Cc1cc(C)c2c(c1)CSCc1cc(C)cc(C)c1-2`, the GI50 in the assay on DLD-1 is 33.3 µM (inactive); in the assay on DMS-114, 25.2 µM (inactive); in the assay on M19-MEL, 25.1 µM (inactive); with SNB-78 it was 25.1 µM (inactive); in the assay with DMS-273, 58.1 µM (inactive).

`Sc1nnc(COc2ccc(Cl)cc2Cl)[nH]1`: the GI50 with DLD-1, in the assay with DMS-114, in the assay with M19-MEL, with SNB-78, with XF498 and in the assay on DMS-273 was > 100 µM (inactive) in each case.

In the case of `C#CC1(O)CC(c2ccccc2)N(C)C(c2ccccc2)C1` (configuration not stated), the GI50 in the assay with RXF 631, in the assay with DMS-114, with M19-MEL, with SNB-78 and in the assay on DMS-273 was > 100 µM (inactive) each time.

As for `Nc1c(Cl)ncnc1NCCCNc1ncnc(Cl)c1N`, the GI50 in the assay with DLD-1, with DMS-114, in the assay on M19-MEL, in the assay on SNB-78, in the assay with XF498 and with DMS-273 was > 100 µM (inactive) each time.

For `O=C(N/C(=C\c1ccc([N+](=O)[O-])cc1)c1nc2ccccc2[nH]1)c1ccccc1`, the GI50 in the assay on DLD-1 is > 100 µM (inactive); in the assay on RXF 631, 43.7 µM (inactive); in the assay on DMS-114, > 100 µM (inactive); in the assay with M19-MEL it was > 100 µM (inactive); with SNB-78, > 100 µM (inactive).

`O=S1(=O)OCCOS(=O)(=O)C1Br`: the GI50 with DLD-1, with RXF 631, with DMS-114, with M19-MEL, with SNB-78 and in the assay on DMS-273 was > 100 µM (inactive) throughout.

With `COc1cccc(NC(=O)/C(CS(=O)(=O)CCC(C(C)=O)C(C)=O)=N/NC(C)(C)C)c1`, the GI50 with DLD-1, with DMS-114, in the assay on SNB-78 and with DMS-273 was > 100 µM (inactive) throughout.

`COc1ccc(OC)c(/C=C(/C#N)c2ccccc2)c1`: the GI50 with DLD-1 was 28.7 µM (inactive); in the assay on M19-MEL, 22.2 µM (inactive); in the assay on DMS-273 it was 4.22 µM (inactive).

Consider `CC(OC1CC(=O)CC2C(=O)C=CC(=O)C12)c1ccccc1` (configuration not stated), for which the GI50 is 12.9 µM (inactive) in the assay on DLD-1; 8.05 µM (inactive) with DMS-114; 16.1 µM (inactive) in the assay on M19-MEL; 19.5 µM (inactive) with SNB-78; 15.8 µM (inactive) in the assay on XF498; 19.1 µM (inactive) with DMS-273.

For the molecule `NC(=S)Nc1nnc(-c2ccc(-c3nnc(NC(N)=S)o3)cc2)o1`, the GI50 with DLD-1, in the assay with DMS-114, in the assay with M19-MEL, with SNB-78 and in the assay on DMS-273 was > 100 µM (inactive) in each case.

With `COc1cc(C2C(Cl)C(=O)N2n2cnc3ccccc3c2=O)cc(OC)c1OC` (configuration not stated), the GI50 is > 100 µM (inactive) in the assay on DLD-1; 43.4 µM (inactive) in the assay with DMS-114; > 100 µM (inactive) in the assay on M19-MEL; > 100 µM (inactive) in the assay on SNB-78; > 100 µM (inactive) in the assay with XF498; 41 µM (inactive) in the assay with DMS-273.

Consider `Cc1ccc(S(=O)(=O)N/N=c2\c(C)c(C3=NS(=O)(=O)c4cc(S(N)(=O)=O)c(Cl)cc4N3)oc3c(Cl)cc(Cl)cc23)cc1`, for which the GI50 in the assay on DLD-1 was > 100 µM (inactive); in the assay with RXF 631, 79.1 µM (inactive); in the assay with DMS-114 it was 26.9 µM (inactive); in the assay on M19-MEL it was > 100 µM (inactive); in the assay with SNB-78 it was > 100 µM (inactive); with DMS-273, 27 µM (inactive).

With `CC(=O)Nc1ccc(-c2nnc(SCC(=O)Nc3cccc([N+](=O)[O-])c3)o2)cc1`, the GI50 with DLD-1 is 12.8 µM (inactive); in the assay on DMS-114 it was 10.2 µM (inactive); in the assay on M19-MEL, 15.1 µM (inactive); with SNB-78, 18 µM (inactive); with DMS-273, 10.9 µM (inactive).

For `CCCCCCCC(=O)OC[C@H](C[As](=O)(O)O)OC(=O)CCCCCCC`, the GI50 is 14.1 µM (inactive) in the assay on DLD-1; 6.84 µM (inactive) with DMS-114; 13.3 µM (inactive) in the assay with M19-MEL; 14 µM (inactive) in the assay with SNB-78; 11.3 µM (inactive) in the assay with DMS-273.

`Cc1ccc(S(=O)(=O)OC2CSSCC2OS(=O)(=O)c2ccc(C)cc2)cc1` (configuration not stated): the GI50 with DLD-1 was 11 µM (inactive); with RXF 631, 13.6 µM (inactive); in the assay with DMS-114, 11.9 µM (inactive); in the assay with M19-MEL, 13.4 µM (inactive); in the assay on SNB-78 it was 20 µM (inactive); with DMS-273, 10.1 µM (inactive).

As for `N=C(N)SCCc1cn2ccccc2n1`, the GI50 in the assay with DLD-1 was 7.03 µM (inactive); in the assay with DMS-114, > 100 µM (inactive); in the assay on M19-MEL, > 100 µM (inactive); in the assay on SNB-78 it was > 100 µM (inactive); with XF498 it was > 100 µM (inactive); with DMS-273, > 100 µM (inactive).

`COc1cc2c(cc1OC)C(N(C)C)C(c1ccccc1)=C2Cl` (configuration not stated): the GI50 in the assay on DLD-1 was 15.1 µM (inactive); in the assay with RXF 631, 15.7 µM (inactive); with M19-MEL, 18.5 µM (inactive); with DMS-273, 16.4 µM (inactive).

In the case of `O=[N+]([O-])c1ccccc1S(=O)(=O)c1ccccc1`, the GI50 was > 100 µM (inactive) in the assay with DLD-1; 18.5 µM (inactive) in the assay on RXF 631; 64 µM (inactive) with DMS-114; 39.4 µM (inactive) with M19-MEL; 0.321 µM (active) in the assay on XF498; > 100 µM (inactive) in the assay with DMS-273.

As to `COc1cc(CNc2ccc(C(C)C)cc2)cc(OC)c1OC`, the GI50 is 24 µM (inactive) with DLD-1; 24.9 µM (inactive) in the assay with DMS-114; 17.1 µM (inactive) in the assay with M19-MEL; 35.1 µM (inactive) in the assay on SNB-78; 32.3 µM (inactive) with XF498.

Take `COc1cc2oc(-c3ccc(O)cc3O)c(CC=C(C)C)c(=O)c2c(O)c1/C=C/C(C)C` [ARTOCARPIN]: the GI50 was 2.79 µM (inactive) in the assay on MDA-N and 5.45 µM (inactive) in the assay on BT-549.

As to `C[C@@H](Oc1ccc(Oc2cnc3ccc(Cl)cc3n2)cc1)C(=O)O` [R(+)XK469], the GI50 in the assay with MDA-N and in the assay with BT-549 was > 100 µM (inactive) in each case.
